We go through one molecule from patent publication US20250221930A1, “A COMPOSITION COMPRISING LIPID NANOPARTICLES AND AN ANTIFUNGAL POLYENE” (INSTITUT NATIONAL DE LA SANTÉ ET DE LA RECHERCHE MÉDICALE, priority 2022, published 2025).

Broadly, the MIC is the least concentration at which growth counts as inhibited.

In brackets after ≈: the same amount, converted by molar mass.

Experiment [1] concerns Aspergillus fumigatus. Nature of the experiment: EUCAST MICs of AmB, ISA, AmB-loaded LNPs and AmB-ISA-loaded LNPs. It counts as cell-based. The note with it: 48 h at 37° C. How it is done: (§1) Briefly, a mass (80-120 mg) of an oil phase consisting of triglycerides (Labrafac®, or tributyrin in different mass ratios, i.e. 100% Labrafac® to 100% tributyrin) was supplemented with AmB (0,025 to 0.2 mg) and ISA (0.25 to 5 mg) and then mixed with 80 to 120 mg of PEG15HS (Solutol HS15®) and 500 to 800 μl of water to form an oil-in-water emulsion. This emulsion was then heated to 85° C., to obtain a water-in-oil emulsion, and then cooled to 40° C. Three such temperature cycles were performed and the system was then fast cooled to 4° C. The formulated nanoparticles were then characterized by size distribution and mean zeta potential measurements. Examples of formulations of LNPs loaded with AmB and AmB-ISA are detailed in Table 5:
Two reference strains (ATCC 16424 and ATCC 204305) and a clinical azole-resistant strain (AfR2) of Aspergillus fumigatus were used.
(§2) MICs of AmB in solution, ISA in solution, AmB-loaded LNPs, and AmB-ISA-loaded LNPs were evaluated according to the European Committee on Antimicrobial Susceptibility Testing (EUCAST) guidelines. Briefly, MICs were determined by adding 100 μL of two-fold dilutions of AmB in solution, ISA in solution, AmB-LNPs or AmB-ISA-LNPs (0.008 to 4 mg/L) in 96-well plates. One hundred microliters of a spore suspension at a concentration of 105 spores/mL were added to the wells, and the plates were incubated for 24 h (Mucorales) or 48 h (A. fumigatus) at 37° C. […] Three experiments were performed for each strain.

Experiment [2] has as its system Rhizopus arrhizus 1. Nature of the experiment: Checkerboard MICs of AmB, ISA and PEG15HS in solution. The format is cell-based. Conditions: Rhizopus arrhizus, 1, RPMI, 24 h at 37° C. How it is done:
(§3) AmB minimum inhibitory concentrations (MIC) of each strain of Mucorales was measured in RPMI in the presence of different concentrations of ISA or PEG15HS as described by the EUCAST broth microdilution antifungal susceptibility test methodology with modification for the checkerboard procedure. Checkerboards were performed by adding 100 μL of two-fold dilutions of AmB (0.008 to 4 mg/L) and ISA (0.008 to 4 mg/L) or PEG15HS (0.04 to 2752 mg/L) in 96 well plates. One hundred microliters of a spore suspension at a concentration of 105 spores/mL were added to the wells, and the plates were incubated for 24 h at 37° C. […] Three experiments were performed for each strain.
(§4) AmB MIC of each strain of Mucorales was measured in RPMI in the presence of different concentrations of ISA and a constant concentration of PEG15HS (100 times the concentration of AmB) as described by the EUCAST broth microdilution antifungal susceptibility test methodology with modification for the checkerboard procedure. Checkerboards were performed by adding 100 μL of two-fold dilutions of AmB (0.008 to 4 mg/L)+PEG15HS (0.8 to 400 mg/L) and ISA (0.008 to 4 mg/L) in 96 well plates. One hundred microliters of a spore suspension at a concentration of 105 spores/mL were added to the wells, and the plates were incubated for 24 h at 37° C. […] Three experiments were performed for each strain. […]

Experiment [3] relates to L. ramosa. Described as above. The format is cell-based, Lichtheimia ramosa. Conditions: Lichtheimia ramosa, RPMI, 24 h at 37° C. How it is done:
as §3, §4

The test system of experiment [4] is L. corymbifera. The experiment is described as above. The note with it: Lichtheimia corymbifera, RPMI, 24 h at 37° C. The format is cell-based, Lichtheimia corymbifera. How it is done:
as §3, §4

The subject of experiment [5] is Rhizopus arrhizus 1. The experiment can be described thus: EUCAST MICs of AmB, ISA, AmB-loaded LNPs and AmB-ISA-loaded LNPs. It counts as cell-based. Conditions: Rhizopus arrhizus, 1; 24 h at 37° C. On the procedure:
as §1
(§5) Rhizopus arrhizus 1, Lichtheimia corymbifera and Lichtheimia ramosa strains were used. These correspond to the most frequently encountered species in human mucormycosis. These three strains were isolated from patients suffering from pulmonary mucormycosis.
as §2

The test system of experiment [6] is Lichtheimia ramosa. Described as above. The note with it: Lichtheimia ramosa; 24 h at 37° C. It counts as cell-based. On the procedure: as §1, §5, §2
Experiment [7] concerns Lichtheimia corymbifera. The experiment is described as above. The format is cell-based. Conditions: Lichtheimia corymbifera; 24 h at 37° C. How it is done:
as §1, §5, §2

In the case of `C[C@@H](c1nc(-c2ccc(C#N)cc2)cs1)[C@](O)(Cn1cncn1)c1cc(F)ccc1F` [ISA, isavuconazole], the MIC was 0.5 µg/mL (≈ 1.14 µM) in experiment [1] (ATCC16424, Aspergillus fumigatus 16 (ATCC 16424)); 0.5 µg/mL (≈ 1.14 µM) in experiment [1] (Aspergillus fumigatus, ATCC204305, A. fumigatus 20 (ATCC 204305)); greater than 4 µg/mL in experiment [1] (Aspergillus fumigatus, A. fumigatus R2 (clinical azole-resistant strain AfR2)); 1 µg/mL in experiment [2]; 4 µg/mL in experiment [3]; 4 µg/mL in experiment [4]. Also, the MIC in experiment [5] stood at 1 µg/mL (≈ 2.29 µM); in experiment [6], 4 µg/mL (≈ 9.14 µM); in experiment [7], 4 µg/mL (≈ 9.14 µM).
